Key:
[1] = molecular target: T1, Phosphodiesterase 4 (Rattus norvegicus, UniProt P14270+P14646+P14644+P54748); assay: Inhibition of rolipram binding in rat brain tissue; format: tissue-based
[2] = molecular target: Phosphodiesterase 4 (Homo sapiens, UniProt P27815+Q08499+Q07343+Q08493); assay: Inhibition of Phosphodiesterase 4 from human U937 cells; format: cell-based; settings: u-937
[3] = molecular target: Phosphodiesterase 3 (Homo sapiens) (UniProt Q14432+Q13370); assay: Inhibition of Phosphodiesterase 3 from human platelets; design: concentration or dose not given beside the values; settings: concentration not given here
[4] = Relative activity against human Phosphodiesterase type 4 (PDE4) and rat rolipram binding protein (RBA); design: reference not given here
[5] = molecular target: T1, Phosphodiesterase 4; assay: Inhibition of rolipram binding to rat brain tissue; format: tissue-based
[6] = molecular target: T1, Phosphodiesterase 4; assay: Inhibition of rolipram binding to rat brain tissue at 20 uM; format: tissue-based

Structure (SMILES) | IC50 [1] [nM] | IC50 [2] [nM] | inhibition [3] [%] | Ratio [4] | IC50 [5] [nM] | IC50 [6] [nM]
COc1ccc(C(=O)Nc2c(Cl)cncc2Cl)c2c(C)c(C(C)=O)oc12 | 160 | 320 |  |  |  | 
COc1ccc(C(=O)Nc2c(Cl)cncc2Cl)c2cc(C(C)O)oc12 (stereo not given) |  | 8.6 | 23 |  |  | 
COc1ccc(C(=O)Nc2ncccc2C)c2cc(C(C)=O)oc12 | 1850 | 452 |  | 0.24 |  | 
COc1ccc(C(=O)Nc2c(Cl)cncc2Cl)c2cc(CC(C)(C)C)oc12 |  | 17 | 34 |  |  | 
COc1ccc(C(=O)Nc2c(Cl)cncc2Cl)c2cc(C(=O)c3ccncc3)oc12 |  | 2.41 | 7 | 0.3 |  | 8.1
COc1ccc(C(=O)N(C)c2c(Cl)cncc2Cl)c2cc(C(C)=O)oc12 | 150 | 330 |  |  |  | 
COc1ccc(C(=O)Nc2cccnc2Cl)c2cc(C(C)=O)oc12 | 199 | 875 |  | 4.4 |  | 
CCc1cc2c(C(=O)Nc3c(Cl)cncc3Cl)ccc(OC)c2o1 |  | 27 | 46 |  |  | 
COc1ccc(C(=O)Nc2ccncc2)c2cc(C(C)=O)oc12 | 250 | 120 |  | 0.48 |  | 

The remaining lines, values ahead:

IC50 [1] [nM] | IC50 [2] [nM] | inhibition [3] [%] | Ratio [4] | IC50 [5] [nM] | IC50 [6] [nM] | Structure (SMILES)
 | 1.6 | 32 |  |  |  | COc1ccc(C(=O)Nc2c(Cl)cncc2Cl)c2cc(C(C)=O)oc12
32 | 6.3 |  | 0.197 |  |  | COc1ccc(C(=O)Nc2ccncc2Cl)c2cc(C(C)=O)oc12
 |  | 31 |  |  |  | COc1ccc(C(=O)Nc2c(Cl)cncc2Cl)c2cc(C#N)oc12
228 | 85.1 |  | 0.37 |  |  | COc1ccc(C(=O)Nc2c(Cl)cc(C#N)cc2Cl)c2cc(C(C)=O)oc12
59.6 | 164 |  | 2.75 |  |  | COc1ccc(C(=O)Nc2ncncc2Cl)c2cc(C(C)=O)oc12
 | 54 |  | 0.21 | 248 |  | COc1ccc(C(=O)Nc2ccccc2Cl)c2cc(C(C)=O)oc12
 | 770 | 38 |  |  |  | COc1ccc(C(=O)Nc2c(Cl)cncc2Cl)c2cc(C(=O)O)oc12

Reference: ChEMBL document CHEMBL1132733, “7-Methoxybenzofuran-4-carboxamides as PDE 4 inhibitors: a potential treatment for asthma” (Bioorg Med Chem Lett, 2000)
